Test results published in ChEMBL document CHEMBL1201862, “PubChem BioAssay data set” (2004).
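96-well plates; 48 h exposure; 5 concentrations. Endpoints by linear interpolation between flanking doses. Not reached: highest tested concentration assigned. The concentration for 50% growth inhibition is given as GI50.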 The source made the active and inactive calls. Rule as the data show it: active = GI50 up to about 1.1 µM and inactive = higher.

Key:
Test in all cases: NCI anticancer screen, dose series, 48 h
HCT-15 = tested on: HCT-15
OVCAR-4 = tested on: OVCAR-4
SF-268 = tested on: SF-268
SF-295 = tested on: SF-295
PC-3 = tested on: PC-3
SR = tested on: SR
NCI-H460 = tested on: NCI-H460
786-0 = tested on: 786-0
EKVX = tested on: EKVX
COLO 205 = tested on: COLO 205
NCI/ADR-RES = tested on: NCI/ADR-RES
HCC 2998 = tested on: HCC 2998
NCI-H23 = tested on: NCI-H23
SK-MEL-2 = tested on: SK-MEL-2
KM12 = tested on: KM12
SK-MEL-5 = tested on: SK-MEL-5
IGROV-1 = tested on: IGROV-1
SW-620 = tested on: SW-620
Malme-3M = tested on: Malme-3M
A549 = tested on: A549
HT-29 = tested on: HT-29
UACC-257 = tested on: UACC-257
HOP-62 = tested on: HOP-62
DU-145 = tested on: DU-145
OVCAR-8 = tested on: OVCAR-8
UACC-62 = tested on: UACC-62
SF-539 = tested on: SF-539
HCT-116 = tested on: HCT-116
LOX IMVI = tested on: LOX IMVI
NCI-H226 = tested on: NCI-H226
OVCAR-5 = tested on: OVCAR-5
MOLT-4 = tested on: MOLT-4
SK-MEL-28 = tested on: SK-MEL-28
CCRF-CEM = tested on: CCRF-CEM
UO-31 = tested on: UO-31
MDA-MB-231 = tested on: MDA-MB-231
SNB-19 = tested on: SNB-19
RXF 393 = tested on: RXF 393
T47D = tested on: T47D
HOP-92 = tested on: HOP-92
M14 = tested on: M14
RPMI-8226 = tested on: RPMI-8226
SK-OV-3 = tested on: SK-OV-3
BT-549 = tested on: BT-549
K562 = tested on: K562
MDA-N = tested on: MDA-N
OVCAR-3 = tested on: OVCAR-3
SNB-75 = tested on: SNB-75
A498 = tested on: A498
NCI-H522 = tested on: NCI-H522
MCF7 = tested on: MCF7
MDA-MB-435 = tested on: MDA-MB-435
Hs-578T = tested on: Hs-578T
HL-60 = tested on: HL-60
ACHN = tested on: ACHN
SN12C = tested on: SN12C
TK-10 = tested on: TK-10
U-251 = tested on: U-251
CAKI-1 = tested on: CAKI-1

SMILES: O=C(/C=C/c1cccc(Br)c1)c1ccc(Cl)cc1
- GI50 (HCT-15): 14.8 µM
- GI50 (OVCAR-4): 4.36 µM (inactive)
- GI50 (SF-268): 17.5 µM (inactive)
- GI50 (SF-295): 17.5 µM (inactive)
- GI50 (PC-3): 15 µM (inactive)
- GI50 (SR): 2.42 µM (inactive)
- GI50 (NCI-H460): 16.9 µM (inactive)
- GI50 (786-0): 14.3 µM (inactive)
- GI50 (EKVX): 16 µM (inactive)
- GI50 (COLO 205): 17.2 µM (inactive)
- GI50 (NCI/ADR-RES): 21.7 µM (inactive)
- GI50 (HCC 2998): 18.8 µM (inactive)
- GI50 (NCI-H23): 17 µM (inactive)
- GI50 (SK-MEL-2): 15.3 µM (inactive)
- GI50 (KM12): 11.8 µM (inactive)
- GI50 (SK-MEL-5): 14.2 µM (inactive)
- GI50 (IGROV-1): 17.1 µM (inactive)
- GI50 (SW-620): 2.95 µM (inactive)
- GI50 (Malme-3M): 14 µM (inactive)
- GI50 (A549): 16.8 µM (inactive)
- GI50 (HT-29): 11.2 µM (inactive)
- GI50 (UACC-257): 17.1 µM (inactive)
- GI50 (HOP-62): 19.2 µM (inactive)
- GI50 (DU-145): 14.8 µM (inactive)
- GI50 (OVCAR-8): 17 µM (inactive)
- GI50 (UACC-62): 14.8 µM (inactive)
- GI50 (SF-539): 16.6 µM (inactive)
- GI50 (HCT-116): 5.35 µM (inactive)
- GI50 (LOX IMVI): 12.6 µM (inactive)
- GI50 (NCI-H226): 18.8 µM (inactive)
- GI50 (OVCAR-5): 15.6 µM (inactive)
- GI50 (MOLT-4): 5.93 µM (inactive)
- GI50 (SK-MEL-28): 15.1 µM (inactive)
- GI50 (CCRF-CEM): 4.5 µM (inactive)
- GI50 (UO-31): 15.5 µM (inactive)
- GI50 (MDA-MB-231): 18 µM (inactive)
- GI50 (SNB-19): 16.3 µM (inactive)
- GI50 (RXF 393): 17.8 µM (inactive)
- GI50 (T47D): 12.8 µM (inactive)
- GI50 (HOP-92): 15 µM (inactive)
- GI50 (M14): 14.6 µM (inactive)
- GI50 (RPMI-8226): 2.08 µM (inactive)
- GI50 (SK-OV-3): 21.1 µM (inactive)
- GI50 (BT-549): 17 µM (inactive)
- GI50 (K562): 6.58 µM (inactive)
- GI50 (MDA-N): 6.32 µM (inactive)
- GI50 (OVCAR-3): 16.7 µM (inactive)
- GI50 (SNB-75): 13.6 µM (inactive)
- GI50 (A498): 13.3 µM (inactive)
- GI50 (NCI-H522): 13.6 µM (inactive)
- GI50 (MCF7): 4.38 µM (inactive)
- GI50 (MDA-MB-435): 6.25 µM (inactive)
- GI50 (Hs-578T): 22.7 µM (inactive)
- GI50 (HL-60): 14.3 µM (inactive)
- GI50 (ACHN): 16.8 µM (inactive)
- GI50 (SN12C): 17.2 µM (inactive)
- GI50 (TK-10): 13 µM (inactive)
- GI50 (U-251): 5.98 µM (inactive)
- GI50 (CAKI-1): 14 µM (inactive)

SMILES: COc1ccc(C(=O)NC2=C(Cl)C(=O)c3ccccc3C2=O)cc1
- GI50 (HCT-15): 0.482 µM
- GI50 (OVCAR-4): 2.17 µM (inactive)
- GI50 (SF-268): 4.69 µM (inactive)
- GI50 (SF-295): 3.85 µM (inactive)
- GI50 (PC-3): 1.65 µM (inactive)
- GI50 (SR): 1.61 µM (inactive)
- GI50 (NCI-H460): 3.1 µM (inactive)
- GI50 (786-0): 5.36 µM (inactive)
- GI50 (EKVX): 5.3 µM (inactive)
- GI50 (COLO 205): 1.89 µM (inactive)
- GI50 (NCI/ADR-RES): 2.07 µM (inactive)
- GI50 (HCC 2998): 4.49 µM (inactive)
- GI50 (NCI-H23): 1.6 µM (inactive)
- GI50 (SK-MEL-2): 1.02 µM (active)
- GI50 (KM12): 1.07 µM (active)
- GI50 (SK-MEL-5): 1.58 µM (inactive)
- GI50 (IGROV-1): 2.52 µM (inactive)
- GI50 (SW-620): 1.1 µM (active)
- GI50 (Malme-3M): 1.48 µM (inactive)
- GI50 (A549): 4.08 µM (inactive)
- GI50 (HT-29): 4.41 µM (inactive)
- GI50 (UACC-257): 1.71 µM (inactive)
- GI50 (HOP-62): 18 µM (inactive)
- GI50 (DU-145): 3.86 µM (inactive)
- GI50 (OVCAR-8): 3.32 µM (inactive)
- GI50 (UACC-62): 0.471 µM (active)
- GI50 (SF-539): 1.66 µM (inactive)
- GI50 (HCT-116): 0.406 µM (active)
- GI50 (LOX IMVI): 2.3 µM (inactive)
- GI50 (NCI-H226): 1.82 µM (inactive)
- GI50 (OVCAR-5): 2.7 µM (inactive)
- GI50 (MOLT-4): 0.955 µM (active)
- GI50 (SK-MEL-28): 1.15 µM (inactive)
- GI50 (CCRF-CEM): 3.23 µM (inactive)
- GI50 (UO-31): 1.9 µM (inactive)
- GI50 (MDA-MB-231): 2.36 µM (inactive)
- GI50 (SNB-19): 5.16 µM (inactive)
- GI50 (RXF 393): 0.995 µM (active)
- GI50 (T47D): 0.929 µM (active)
- GI50 (HOP-92): 1.36 µM (inactive)
- GI50 (M14): 1.05 µM (active)
- GI50 (RPMI-8226): 0.579 µM (active)
- GI50 (SK-OV-3): 2.23 µM (inactive)
- GI50 (BT-549): 2.02 µM (inactive)
- GI50 (K562): 1.36 µM (inactive)
- GI50 (MDA-N): 2.75 µM (inactive)
- GI50 (OVCAR-3): 1.14 µM (inactive)
- GI50 (SNB-75): 2.56 µM (inactive)
- GI50 (A498): 14.6 µM (inactive)
- GI50 (NCI-H522): 0.416 µM (active)
- GI50 (MCF7): 2.75 µM (inactive)
- GI50 (MDA-MB-435): 2.22 µM (inactive)
- GI50 (Hs-578T): 3.08 µM (inactive)
- GI50 (HL-60): 0.336 µM (active)
- GI50 (ACHN): 0.472 µM (active)
- GI50 (SN12C): 2.77 µM (inactive)
- GI50 (TK-10): 3.22 µM (inactive)
- GI50 (U-251): 0.977 µM (active)
- GI50 (CAKI-1): 2.3 µM (inactive)

SMILES: c1ccc([P+](CCCCCCCC[P+](c2ccccc2)(c2ccccc2)c2ccccc2)(c2ccccc2)c2ccccc2)cc1
- GI50 (HCT-15): > 100 µM
- GI50 (OVCAR-4): 6.04 µM (inactive)
- GI50 (SF-268): 3.5 µM (inactive)
- GI50 (SF-295): 6.53 µM (inactive)
- GI50 (PC-3): 1.19 µM (inactive)
- GI50 (SR): 23 µM (inactive)
- GI50 (NCI-H460): 3.25 µM (inactive)
- GI50 (786-0): 16.6 µM (inactive)
- GI50 (EKVX): > 61.5 µM (inactive)
- GI50 (COLO 205): 0.91 µM (active)
- GI50 (NCI/ADR-RES): > 100 µM (inactive)
- GI50 (HCC 2998): 21.3 µM (inactive)
- GI50 (NCI-H23): 2.16 µM (inactive)
- GI50 (SK-MEL-2): 5.69 µM (inactive)
- GI50 (KM12): 1.52 µM (inactive)
- GI50 (SK-MEL-5): 8.05 µM (inactive)
- GI50 (IGROV-1): 2.4 µM (inactive)
- GI50 (SW-620): 6.81 µM (inactive)
- GI50 (Malme-3M): 16.4 µM (inactive)
- GI50 (A549): 5.73 µM (inactive)
- GI50 (HT-29): 2.04 µM (inactive)
- GI50 (UACC-257): 0.92 µM (active)
- GI50 (HOP-62): 3.64 µM (inactive)
- GI50 (DU-145): 30 µM (inactive)
- GI50 (OVCAR-8): 4.4 µM (inactive)
- GI50 (UACC-62): 24.1 µM (inactive)
- GI50 (SF-539): 2.37 µM (inactive)
- GI50 (HCT-116): 1.87 µM (inactive)
- GI50 (LOX IMVI): 4.2 µM (inactive)
- GI50 (NCI-H226): 3.61 µM (inactive)
- GI50 (OVCAR-5): 11.2 µM (inactive)
- GI50 (MOLT-4): 10.2 µM (inactive)
- GI50 (SK-MEL-28): 16.9 µM (inactive)
- GI50 (CCRF-CEM): 9.23 µM (inactive)
- GI50 (UO-31): > 100 µM (inactive)
- GI50 (MDA-MB-231): 7.13 µM (inactive)
- GI50 (SNB-19): 0.396 µM (active)
- GI50 (RXF 393): 31.6 µM (inactive)
- GI50 (T47D): 5.16 µM (inactive)
- GI50 (HOP-92): 3.07 µM (inactive)
- GI50 (M14): 35.6 µM (inactive)
- GI50 (RPMI-8226): 1.87 µM (inactive)
- GI50 (SK-OV-3): 17.3 µM (inactive)
- GI50 (BT-549): 1.99 µM (inactive)
- GI50 (K562): 3.6 µM (inactive)
- GI50 (MDA-N): 6.89 µM (inactive)
- GI50 (OVCAR-3): 3.83 µM (inactive)
- GI50 (SNB-75): 0.307 µM (active)
- GI50 (A498): > 31.8 µM (inactive)
- GI50 (NCI-H522): 1.8 µM (inactive)
- GI50 (MCF7): 4.48 µM (inactive)
- GI50 (MDA-MB-435): 4.92 µM (inactive)
- GI50 (Hs-578T): 2.06 µM (inactive)
- GI50 (HL-60): 1.03 µM (active)
- GI50 (ACHN): 58.9 µM (inactive)
- GI50 (SN12C): 3.73 µM (inactive)
- GI50 (TK-10): 18 µM (inactive)
- GI50 (U-251): 0.22 µM (active)
- GI50 (CAKI-1): > 100 µM (inactive)
